How the values were obtained:
[1] = test system: cocaine-binding immunoglobulins; test: Competitive binding studies of the immune response (cocaine-binding immunoglobulins)
Description: Consequently, inhibition of cocaine-binding immunoglobulins would not be expected in vivo from these metabolites.

[2] = Plasma cocaine levels by HPLC; assay type: in vivo, rat; settings: 15 mg/kg i.p.
Description: Analysis of serum immunoglobulin dissociation kinetics, antigen-binding capacity and the effect of antigen dilution (P. Minden, et al., in Handbook of Experimental Immunology. Weir, D. M., Ed., (Davis Co., Philadelphia, 1967), chap. 13, pp. 463-492; M. W. Steward et al., Antibody Affinity: Thermodynamic Aspects and Biological Significance, (CRC Press, Boca Raton, Fla., 1983); H. N. Eisen, in Methods in Medical Research. Eisen, H. N., Ed., (Yearbook Medical Publishers, Chicago, 1964), pp. 106-114; J. H. Hill, et al. Clin. Exp. Immunol. (1973): vol. 15, p 213-224.) were consistent with an in vivo antibody excess having a micromolar average binding constant. […] To complement these experiments, plasma cocaine levels were determined by HPLC according to a modified method of Benuck (M. Benuck, et al., J. Pharmacol. Exp. Ther.(1987): vol. 243, p 144-149) following a 15 mg/kg i.p. injection in a separate group of animals.

## CN1[C@H]2CC[C@@H]1[C@@H](C(=O)O)[C@@H](OC(=O)c1ccccc1)C2 [benzoylecgonine]
[1]; immune response to hapten 4 conjugate
  discrimination for cocaine versus competitor: greater than 900 fold

## COC(=O)[C@H]1[C@@H](OC(=O)c2ccccc2)C[C@@H]2CC[C@H]1N2C [cocaine, (−)-cocaine]
[2]
  peak plasma concentration: 5.56 ± 0.31 µM
  time of peak plasma concentration: 5 min
[2]; Wistar, rat, plasma, ip
  half-life: 25 min

## COC(=O)[C@@H]1[C@H]2CC[C@@H](C[C@@H]1O)N2C [ecgonine methyl ester]
[1]
  inhibition of cocaine-binding by competitor: no detectable inhibition
